Where “and” joins values, the source holds several entries; their conditions need not be identical. Equal values may be shown once. Read-outs that look alike come from different tables or passages of the source.
Legend:
[1] = test system: B16 melanoma cells (highly metastatic subline, F10); test: B16 melanoma in vitro cloning (colony forming) assay, 2 hour exposure; assay type: cell-based; details: read-out: IC50: concentration which inhibits cloning efficiency of B16 melanoma cells by 50%
Experimental: Initially, the cytotoxic activity of the Formula (I) and Formula (IA) compounds used in the pharmaceutical compositions and methods of treatment of the instant invention was evaluated in vitro using B16 melanoma cells according to the following assay:
B16 melanoma (highly metastatic subline, F10) are used and maintained as monolayer cultures in Minimal Essential Media (Grand Island Biological Co., Grand Island, N.Y. ) supplemented with 10% calf serum, 1% antibiotics in a 5% CO2 humidified incubator at 37° C. Asynchronous populations of cells are harvested and replated to 5000 cells/plate in sterile 60 mm×15 mm petri plates. Plates are incubated overnight to allow attachment of the cells to the plate. Cells are treated with a Formula (I) or Formula (IA) compound or cisplatin under sterile conditions, allowed to react for 2 hours followed by aspiration of medium. Plates are washed one time with 5 ml of phosphate buffered saline (PBS), followed by the addition of 5 ml of fresh media. Plates are incubated for 5 days at 37° in a CO2 incubator. Viability is measured by the ability of a cell to form a colony of greater than 50 cells. Colonies are fixed with 0.5% crystal violet in 95% ethanol. Plates are dried and counted with a Biotran III Automatic Count Totalizer (New Brunswick Scientific Co., Edison, N.J.). Mean and standard deviation of triplicate samples are determined for each drug concentration. The data are analyzed by plotting the log of the survival fraction (number of colonies in drug treated plates/number of colonies in controls) versus the drug concentration.
^(a) concentration which inhibits cloning efficiency of B16 melanoma
cells by 50% on a 2hour exposure.

[2] = test system: M5076 reticulum cell sarcoma; test: ip M5076 reticulum cell sarcoma assay in mice; details: for MTD (maximally tolerated dose): B6D2F1 female mice; for MTD (maximally tolerated dose) / ILS max (maximum increase in lifespan): ip qD × 10; for ILS max (maximum increase in lifespan): ip M5076 sarcoma mice, slash = separate experiments; for activity in the ip M5076 reticulum cell sarcoma assay: in words, based on Tables C and D
Experimental: (§1) Another chemosensitive tumor model is intraperitoneally (ip) implanted M5076 reticulum cell sarcoma in mice. In this system B6D2F1 female mice are inoculated with 0.5 ml of a 10 percent weight:volume (w:v) brei of M5076 prepared from pooled subcutaneous (sc) tumors excised at about 21 days from c57B1/6 donor mice. Drugs are administered ip. Daily treatment is begun 24 hours after implantation and is continued for ten days. The treatment regimen for M5076 is more prolonged than for P388 because of the slower growth rate and longer control survival time of the M5076 tumor.

B16 melanoma = test: in vivo ip B16 melanoma assay; details: Table E, ip qD × 10
Experimental: The cytotoxic activity of several compounds of Formula (I) was evaluated in vivo using B16 melanoma cells according to the following assay:
In this system, groups of eight B6D2F1 mice are inoculated ip with 0.5 ml of a 10% (w:v) brei of B16 melanoma prepared from pooled sc tumors excised at 14.noteq.21 days from C67B1 /6 donor mice. Daily treatment is begun 24 hours after tumor implantation and is continued daily for 10 days. The route of drug administration is ip. The mice are monitored daily for survival for 60 days. Antitumor activity is assessed by prolongation of median survival time.

[3] = test system: mammary adenocarcinoma 16/c; test: sc mammary adenocarcinoma 16/c assay
Experimental: The mammary adenocarcinoma 16/c tumor is implanted sc in C3H mice, and the Formula (I) compound is administered ip on days 1, 5, 9, 13 and 17. Tumors are measured 3 weeks after implantation, and activity is assessed by degree of tumor growth inhibition.

[4] = ip M5076 reticulum cell sarcoma assay in mice; details: mouse, in vivo, ip
Experimental: as §1

in vivo = details: mouse, ip
ADJ-PC6 Plasmacytoma = test: ADJ-PC6 plasmacytoma assay; details: in words
Experimental: Tumor cells are carried by serial sc passage in BALB/c female mice and then collected aseptically on ca. Day 21 and minced in Hank's balanced salt solution. The cells are then dispersed by homogenization in a loose-fitting teflon glass homogenizer, and cell concentration is adjusted to 4×10^6 viable ([…]) cells per ml by hemocytometer counts. A total of 0.5 ml (2×10^6 cells) is implanted sc on the right flank of BALB/c female mice in groups of 8. Treatment is given ip on Days 1-10, and tumors are measured in perpendicular diameters with a vernier caliper on Day 18.
^(b) maximally tolerated dose for BALB/c female mice on an ip qD

[5] = Table B, B6D2F1 female mice, ip qD × 5
[6] = Table B, ip P388 leukemia mice, ip days 1-5, slash-separated figures are separate experiments, compound 2: 35 experiments
[7] = Table C, compound 2: seven experiments
[8] = Mus musculus, B16, Table AI, Formula (IA)

For `[Cl][Au][PH](C[PH]([Au][Cl])(c1ccccc1)c1ccccc1)(c1ccccc1)c1ccccc1` [Compound 1, μ-[1,3-Bis(Diphenylphosphino)Methane]Bis[Chlorogold(I)]], the IC50 ([1]; Table A, Formula (I)) was 6 µM, the “MTD (maximally tolerated dose)” value (P388 leukemia; [5]) was 50 mg/kg and the “ILS (maximum increase in lifespan)” value (P388 leukemia; [6]) was 62% and 50%.

In the case of `[Cl][Au][PH](CCC[PH]([Au][Cl])(c1ccccc1)c1ccccc1)(c1ccccc1)c1ccccc1` [Compound 3, μ-[1,3-Bis(Diphenylphosphino)Propane]Bis[Chlorogold(I)]], the IC50 ([1]; Table A, Formula (I)) is reported as 2 µM, the “MTD (maximally tolerated dose)” value ([2]; Table C) is reported as 5 mg/kg and the “ILS max (maximum increase in lifespan)” value [2, 7] is reported as 69%. For the same compound, the “activity in the ip M5076 reticulum cell sarcoma assay” value [2] was “good activity” and the “MTD (maximally tolerated dose)” value (P388 leukemia; [5]) was 8 mg/kg.

For `[Cl][Au][PH](CCCC[PH]([Au][Cl])(c1ccccc1)c1ccccc1)(c1ccccc1)c1ccccc1` [Compound 4, μ-[1,4-Bis(Diphenylphosphino)Butane]Bis[Chlorogold(I)]], the IC50 ([1]; Table A, Formula (I)) was 3 µM, the “ILS (maximum increase in lifespan)” value (P388 leukemia; [6]) was 45% and 40% and the “MTD (maximally tolerated dose)” value (P388 leukemia; mouse, in vivo, ip) was 6 mg/kg.

In the case of `[Cl][Au-][P+](CCCCC[P+]([Au-][Cl])(c1ccccc1)c1ccccc1)(c1ccccc1)c1ccccc1` [Compound 5, μ-[1,5-Bis(Diphenylphospinio)Pentane]Bis[Chlorogold(I)]], the IC50 ([1]; Table A, Formula (I)) is reported as 2 µM, the “MTD (maximally tolerated dose)” value (P388 leukemia; [5]) is reported as 4 mg/kg and the “ILS (maximum increase in lifespan)” value (P388 leukemia; [6]) is reported as 55%.

In the case of `[Cl][Au-][P+](CCCCCC[P+]([Au-][Cl])(c1ccccc1)c1ccccc1)(c1ccccc1)c1ccccc1` [Compound 6, μ-[1,6-Bis(Diphenylphosphino)Hexane]Bis[Chlorogold(I)]], the IC50 ([1]; Table A, Formula (I)) is reported as 2 µM, the “ILS (maximum increase in lifespan)” value (P388 leukemia; mouse, in vivo, ip) is reported as 40% and 35% and the “MTD (maximally tolerated dose)” value (P388 leukemia; mouse, in vivo, ip) is reported as 4 mg/kg.

In the case of `[Cl][Au][PH](C=C[PH]([Au][Cl])(c1ccccc1)c1ccccc1)(c1ccccc1)c1ccccc1` [Compound 7, μ-[Cis-1,2-Bis(Diphenylphosphino)Ethylene]Bis[Chlorogold(I)]], the IC50 ([1]; Table A, Formula (I)) is reported as 7 µM, the “MTD (maximally tolerated dose)” value ([2]; Table C) is reported as 3 mg/kg and the “ILS max (maximum increase in lifespan)” value [2, 7] is reported as 90%. The “activity in the ip M5076 reticulum cell sarcoma assay” value [2] was “good activity”, the “MTD (maximally tolerated dose)” value (P388 leukemia; [5]) was 4 mg/kg and the “ILS (maximum increase in lifespan)” value (P388 leukemia; [6]) was 105% and 77%.

For `[Cl][Au]([Cl])([Cl])[PH](CC[PH](c1ccccc1)(c1ccccc1)[Au]([Cl])([Cl])[Cl])(c1ccccc1)c1ccccc1` [Compound 12, μ-[1,2-Bis(Diphenylphosphino)Ethane]Bis[Trichlorogold(III)]], the IC50 ([1]; Table A, Formula (I)) was 4 µM, the “MTD (maximally tolerated dose)” value ([2]; Table C) was 8 mg/kg and the “ILS max (maximum increase in lifespan)” value [2, 7] was 74%. For the same compound, the “MTD (maximally tolerated dose)” value (P388 leukemia; [5]) was 16 mg/kg and the “ILS (maximum increase in lifespan)” value (P388 leukemia; [6]) was 95% and 62%.

In the case of `[Br][Au][PH](CC[PH]([Au][Br])(c1ccccc1)c1ccccc1)(c1ccccc1)c1ccccc1` [Compound 15], the “MTD (maximally tolerated dose)” value (B16 melanoma; B6D2F1 mice) is reported as 13 um/kg, the “ILS (maximum increase in lifespan)” value (B16 melanoma; ip B16 melanoma mice, slash = separate experiments) is reported as 49% and 41% and the “MTD (maximally tolerated dose)” value ([3]; Table F, C3H mice, intermittent ip regimen) is reported as 26 um/kg. For the same compound, the “Inhibition (tumor growth inhibition)” value ([3]; Table F, sc tumor, ip days 1, 5, 9, 13, 17, slash = separate experiments) was 79%, the “ILS max (maximum increase in lifespan)” value [2, 7] was 69% and the “ILS (maximum increase in lifespan)” value (P388 leukemia; [6]) was 116% and 80%.

With `[Cl][Au][PH](CC[PH]([Au][Cl])(C1CCCCC1)C1CCCCC1)(C1CCCCC1)C1CCCCC1` [Compound 22, μ-[1,2-Bis(Dicyclohexylphosphino)Ethane]Bis[Chlorogold(I)]] the IC50 ([1]; Table A, Formula (I)) was 14 µM, the “MTD (maximally tolerated dose)” value ([2]; Table C) was 8 mg/kg and the “ILS max (maximum increase in lifespan)” value [2, 7] was 27%. The “MTD (maximally tolerated dose)” value (P388 leukemia; [5]) was 16 mg/kg.

In the case of `C(=C/P(c1ccccc1)c1ccccc1)/P(c1ccccc1)c1ccccc1` [Compound 34, cis-bis(1,2-diphenylphosphino)ethylene], the IC50 [1, 8] is reported as 25 µM, the MTD [4] is reported as 5 mg/kg and the “ILS max (maximum increase in lifespan)” value ([2]; Table D) is reported as 57%. The “activity in the ip M5076 reticulum cell sarcoma assay” value [2] was “good activity” and the MTD (in vivo) was 24 mg/kg.

In the case of `CC(CP(c1ccccc1)c1ccccc1)P(c1ccccc1)c1ccccc1` (stereo not shown) [Compound 35, Bis(1,2-diphenylphosphino)propane], the IC50 [1, 8] is reported as 50 µM, the “MTD (maximally tolerated dose)” value ([2]; Table D) is reported as 24 mg/kg and the “ILS max (maximum increase in lifespan)” value ([2]; Table D) is reported as 62%. For the same compound, the MTD (in vivo) was 32 mg/kg.

`C[C@H](CP(c1ccccc1)c1ccccc1)P(c1ccccc1)c1ccccc1` [Compound 36, R-(+)-bis(1,2-diphenylphosphino)propane] showed an IC50 [1, 8] of 50 µM and an MTD (in vivo) of 32 mg/kg.

For `c1ccc(P(CCCP(c2ccccc2)c2ccccc2)c2ccccc2)cc1` [Compound 37, bis(1,3-diphenylphosphino)propane], the IC50 [1, 8] was 72 µM and the MTD (in vivo) was 32 mg/kg.

Work on `c1ccc(P(c2ccccc2)c2ccccc2P(c2ccccc2)c2ccccc2)cc1` [Compound 40, Bis(1,2-Diphenylphosphino)Benzene] yielded an IC50 [1, 8] of 28 µM and an MTD (in vivo) of 32 mg/kg.

`[2H]c1c([2H])c([2H])c(P(CCP(c2c([2H])c([2H])c([2H])c([2H])c2[2H])c2c([2H])c([2H])c([2H])c([2H])c2[2H])c2c([2H])c([2H])c([2H])c([2H])c2[2H])c([2H])c1[2H]` [Compound 43, 1,2-Ethanediyl-bis[di(phenyl-d5)phosphine]] showed an IC50 [1, 8] of 50 µM and an MTD (in vivo) of 24 mg/kg.

With `N.N.[Cl][Pt][Cl]` [cisplatin, reference compound] the “tumor growth inhibition by positive control” value (ADJ-PC6 Plasmacytoma) was “complete tumor growth inhibition”, the “inhibition of growth of mammary adenocarcinoma 16/c by positive control” value ([3]; in words, generally produced) was “complete inhibition” and the “activity of positive control in ip M5076” value ([2]; all experiments, active = average ≥25 percent ILS) was “active in all experiments”.

Source: patent publication US4857549A, “Antitumor compounds” (priority 1988, dated 1989)
